ChEMBL document CHEMBL1129911, “Synthesis, characterization, interaction with DNA, and antitumor activity of a cis-Dichloroplatinum(II) complex linked to an intercalator via one methylene chain” (Bioorg Med Chem Lett, 1997)

Test system: Nucleic Acid
Assay: The association constant was obtained from absorption spectral change
Assay type: nucleic-acid assay

## NCCNCc1c2ccccc2nc2ccccc12
  K ass: 36000 M⁻¹
